Values quoted from earlier work in US20110264374A1, “Method, Computer Program Product and System for Individual Assessment of Alcohol Sensitivity” (UNIVERSITY OF VIRGINIA PATENT FOUNDATION, priority 2007, published 2011).

Experiments:
[1] = blood ethanol, oral ingestion; adopted from the literature [16, 24, 25]

CCO [ethanol, Ethyl Alcohol]
AUC (area under the curve) [1]: 230 µg·h/mL
Cmax [1]: 161.4 µg/mL
tmax [1]: 47 min
time to peak amount of alcohol in the blood (after consumption of one standard drink): 30 to 45 min
remainder not metabolized, excreted in sweat, urine and breath (in vivo): 10%
share of alcohol entering the body completely metabolized in the liver (in vivo): More than 90%
share of consumed alcohol absorbed from the small intestine (oral consumption): approx. 80%
share of consumed alcohol absorbed from the stomach (oral consumption): approx. 20%
